According to US12465609B2, “Methods of treating patients suffering from a disease condition or disorder that is associated with an increased glutamate level” (veriNOS operations GmbH, priority 2022, dated 2025):

Test: Safety and adverse event analyses, NOSTRA III
Assay type: in vivo
Procedure: Safety analyses was performed using standard descriptive methods.
The total number of treatment-emergent adverse events (TEAE) and the total number of patients with TEAEs, the total number of TEAEs related to the study drug (certain, probable, possible), the total number of patients with TEAEs related to the study drug, the total number of TEAEs and the total number of patients with serious TEAEs, the total number of patients with TEAEs leading to discontinuation of study treatment and the total number of patients with TEAEs leading to death were summarised by treatment arm.

## C[C@H](O)[C@H](O)C1CNc2nc(N)nc(N)c2N1 (mixture of isomers) [Ronopterin, 4-Amino-(6R,S)-5,6,7,8-tetrahydro-L-biopterin]
Ronopterin:placebo 11:3
  number of renal AEs: 11
No significant new safety findings
  tolerability of study treatment: well-tolerated
Placebo 11.7%
  proportion of patients with ICP increased (AE): 23.9%
Placebo 13
  number of patients with ICP increased (AE): 27 patients
Related AE/SAEs low and comparable
  number of adverse events (AEs) and serious adverse events (SAEs) compared to the placebo groups: slightly higher number
